Data as given in ChEMBL document CHEMBL3085697, “Design and synthesis of aryl sulfonamide-based nonsteroidal mineralocorticoid receptor antagonists” (Bioorg Med Chem Lett, 2013).

Columns and labels:
[1] = target: T1, Mineralocorticoid receptor (Homo sapiens, UniProt P08235); experiment: Displacement of [3H]aldosterone from GST-tagged human mineralocorticoid receptor ligand binding domain after 4 hrs by liquid scintillation counting
T1 sequence (P08235 whole entry): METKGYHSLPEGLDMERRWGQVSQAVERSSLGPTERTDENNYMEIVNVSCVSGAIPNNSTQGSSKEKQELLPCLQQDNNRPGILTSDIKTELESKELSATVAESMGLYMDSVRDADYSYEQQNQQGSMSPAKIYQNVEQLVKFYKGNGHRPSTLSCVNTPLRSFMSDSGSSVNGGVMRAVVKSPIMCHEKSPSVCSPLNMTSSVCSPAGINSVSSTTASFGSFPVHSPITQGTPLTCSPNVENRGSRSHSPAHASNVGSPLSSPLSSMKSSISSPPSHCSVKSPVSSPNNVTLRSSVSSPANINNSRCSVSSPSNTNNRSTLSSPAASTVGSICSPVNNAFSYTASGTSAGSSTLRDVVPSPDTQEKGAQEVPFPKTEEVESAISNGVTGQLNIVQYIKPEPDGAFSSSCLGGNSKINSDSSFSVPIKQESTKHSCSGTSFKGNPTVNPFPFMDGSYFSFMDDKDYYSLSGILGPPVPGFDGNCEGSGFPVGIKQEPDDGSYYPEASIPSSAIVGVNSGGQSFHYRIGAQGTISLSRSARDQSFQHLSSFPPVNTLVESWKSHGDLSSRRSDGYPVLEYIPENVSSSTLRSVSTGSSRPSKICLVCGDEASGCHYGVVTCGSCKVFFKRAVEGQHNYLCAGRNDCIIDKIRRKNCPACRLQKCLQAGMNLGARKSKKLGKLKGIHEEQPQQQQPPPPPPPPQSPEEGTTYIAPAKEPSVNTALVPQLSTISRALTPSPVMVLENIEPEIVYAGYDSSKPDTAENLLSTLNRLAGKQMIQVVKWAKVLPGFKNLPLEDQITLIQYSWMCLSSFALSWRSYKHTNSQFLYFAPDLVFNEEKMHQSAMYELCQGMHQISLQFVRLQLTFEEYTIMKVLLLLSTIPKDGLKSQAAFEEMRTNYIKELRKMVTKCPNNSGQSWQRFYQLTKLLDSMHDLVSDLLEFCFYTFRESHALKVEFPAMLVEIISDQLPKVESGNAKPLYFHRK

[2] = Apparent intrinsic clearance in human liver microsomes; format: ADME; conditions: read-out: CLH(app)
[3] = Lipophilicity, log D of the compound; format: physicochemical; conditions: octanol/water
[4] = target: CYP3A4 (Homo sapiens, UniProt P08684); experiment: Inhibition of CYP3A4 (unknown origin) at 3 uM; format: ADME
[5] = target: T2, Glucocorticoid receptor (Homo sapiens, UniProt P04150); experiment: Displacement of [3H]dexamethasone from GST-tagged human glucocorticoid receptor ligand binding domain after 4 hrs by liquid scintillation counting
T2 sequence (P04150 whole entry): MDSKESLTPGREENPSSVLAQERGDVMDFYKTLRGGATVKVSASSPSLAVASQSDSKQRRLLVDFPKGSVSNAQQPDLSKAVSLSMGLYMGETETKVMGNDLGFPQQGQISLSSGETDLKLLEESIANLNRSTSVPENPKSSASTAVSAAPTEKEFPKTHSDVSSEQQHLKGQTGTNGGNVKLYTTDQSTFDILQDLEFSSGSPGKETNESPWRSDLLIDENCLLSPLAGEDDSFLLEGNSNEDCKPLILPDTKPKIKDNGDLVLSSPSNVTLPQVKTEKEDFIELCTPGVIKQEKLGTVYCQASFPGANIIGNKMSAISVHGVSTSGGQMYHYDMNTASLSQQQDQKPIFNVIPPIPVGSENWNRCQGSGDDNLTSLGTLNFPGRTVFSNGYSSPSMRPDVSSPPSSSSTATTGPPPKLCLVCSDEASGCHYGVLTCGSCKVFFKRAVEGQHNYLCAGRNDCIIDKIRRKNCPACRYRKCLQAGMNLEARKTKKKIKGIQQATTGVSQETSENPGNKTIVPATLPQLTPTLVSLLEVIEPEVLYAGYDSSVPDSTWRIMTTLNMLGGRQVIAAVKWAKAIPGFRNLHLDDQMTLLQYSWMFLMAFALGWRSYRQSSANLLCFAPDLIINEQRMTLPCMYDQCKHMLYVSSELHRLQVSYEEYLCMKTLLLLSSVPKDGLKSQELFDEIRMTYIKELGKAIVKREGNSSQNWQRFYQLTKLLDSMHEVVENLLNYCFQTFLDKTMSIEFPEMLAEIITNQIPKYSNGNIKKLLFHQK

[6] = target: T3, Progesterone receptor (Homo sapiens, UniProt P06401); experiment: Displacement of [3H]progesterone from human His-progesterone receptor B after 4 hrs by liquid scintillation counting
T3 sequence (P06401 whole entry): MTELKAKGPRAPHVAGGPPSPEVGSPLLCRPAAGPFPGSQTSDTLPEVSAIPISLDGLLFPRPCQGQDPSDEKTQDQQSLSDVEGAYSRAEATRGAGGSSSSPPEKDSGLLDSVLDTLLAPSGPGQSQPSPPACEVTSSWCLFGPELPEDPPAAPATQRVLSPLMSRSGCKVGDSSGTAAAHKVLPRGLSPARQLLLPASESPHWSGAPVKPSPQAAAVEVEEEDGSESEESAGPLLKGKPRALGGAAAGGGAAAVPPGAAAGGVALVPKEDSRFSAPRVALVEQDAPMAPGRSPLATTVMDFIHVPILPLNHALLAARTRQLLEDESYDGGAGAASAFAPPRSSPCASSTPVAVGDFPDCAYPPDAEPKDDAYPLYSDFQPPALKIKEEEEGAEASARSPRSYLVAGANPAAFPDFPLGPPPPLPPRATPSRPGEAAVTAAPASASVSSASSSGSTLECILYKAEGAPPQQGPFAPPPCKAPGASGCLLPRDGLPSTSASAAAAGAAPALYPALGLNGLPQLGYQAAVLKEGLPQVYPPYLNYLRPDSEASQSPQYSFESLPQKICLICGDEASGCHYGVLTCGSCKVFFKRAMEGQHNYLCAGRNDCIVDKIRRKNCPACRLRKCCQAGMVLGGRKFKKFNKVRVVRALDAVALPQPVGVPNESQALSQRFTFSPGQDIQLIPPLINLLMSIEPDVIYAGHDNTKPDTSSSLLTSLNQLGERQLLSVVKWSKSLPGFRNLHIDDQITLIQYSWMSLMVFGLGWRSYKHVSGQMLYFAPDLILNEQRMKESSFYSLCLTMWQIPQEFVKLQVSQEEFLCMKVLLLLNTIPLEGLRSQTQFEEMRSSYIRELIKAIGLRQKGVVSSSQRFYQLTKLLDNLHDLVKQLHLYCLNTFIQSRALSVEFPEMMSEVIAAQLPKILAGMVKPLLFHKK

[7] = target: T1, Mineralocorticoid receptor; experiment: Antagonist activity at human mineralocorticoid receptor ligand binding domain expressed in human Huh7 cells after 16 hrs by luciferase reporter gene assay in absence of serum; format: cell-based, Huh-7
[8] = target: CYP2D6 (Homo sapiens, UniProt P10635); experiment: Inhibition of CYP2D6 (unknown origin) at 3 uM; format: ADME
[9] = target: T4, CYP1A2 (Homo sapiens, UniProt P05177); experiment: Inhibition of CYP1A2 (unknown origin) at 3 uM; format: ADME
T4 sequence (P05177 whole entry): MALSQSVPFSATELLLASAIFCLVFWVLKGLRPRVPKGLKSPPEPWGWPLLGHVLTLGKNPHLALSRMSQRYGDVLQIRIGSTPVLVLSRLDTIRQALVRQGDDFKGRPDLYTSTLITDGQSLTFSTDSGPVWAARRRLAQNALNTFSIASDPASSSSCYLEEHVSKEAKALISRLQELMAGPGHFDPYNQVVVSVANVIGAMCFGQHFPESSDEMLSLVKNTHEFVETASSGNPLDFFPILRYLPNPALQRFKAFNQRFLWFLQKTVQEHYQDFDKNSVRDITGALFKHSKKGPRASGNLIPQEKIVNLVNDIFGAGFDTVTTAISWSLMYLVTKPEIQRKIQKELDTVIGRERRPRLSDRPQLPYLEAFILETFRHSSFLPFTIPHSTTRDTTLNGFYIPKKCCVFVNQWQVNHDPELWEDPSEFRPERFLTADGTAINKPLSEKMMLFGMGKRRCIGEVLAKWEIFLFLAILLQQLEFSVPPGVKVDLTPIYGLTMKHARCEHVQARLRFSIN

[10] = system: Hepatocyte; experiment: Apparent intrinsic clearance in human hepatocytes assessed per million cells; format: ADME, cell-based
[11] = target: CYP2C9 (Homo sapiens, UniProt P11712); experiment: Inhibition of CYP2C9 (unknown origin) at 3 uM; format: ADME
[12] = Apparent permeability across dog RRCK cells; format: ADME, cell-based, Canis lupus familiaris, MDCKII-LE; conditions: MDCK
[13] = target: T1, Mineralocorticoid receptor; experiment: Antagonist activity at human mineralocorticoid receptor ligand binding domain expressed in human Huh7 cells after 16 hrs by luciferase reporter gene assay in presence of serum; format: cell-based, Huh-7
[14] = target: T5, Androgen receptor (Homo sapiens, UniProt P10275); experiment: Antagonist activity at human androgen receptor ligand binding domain expressed in human Huh7 cells after 16 hrs by luciferase reporter gene assay; format: cell-based, Huh-7
T5 sequence (P10275 whole entry): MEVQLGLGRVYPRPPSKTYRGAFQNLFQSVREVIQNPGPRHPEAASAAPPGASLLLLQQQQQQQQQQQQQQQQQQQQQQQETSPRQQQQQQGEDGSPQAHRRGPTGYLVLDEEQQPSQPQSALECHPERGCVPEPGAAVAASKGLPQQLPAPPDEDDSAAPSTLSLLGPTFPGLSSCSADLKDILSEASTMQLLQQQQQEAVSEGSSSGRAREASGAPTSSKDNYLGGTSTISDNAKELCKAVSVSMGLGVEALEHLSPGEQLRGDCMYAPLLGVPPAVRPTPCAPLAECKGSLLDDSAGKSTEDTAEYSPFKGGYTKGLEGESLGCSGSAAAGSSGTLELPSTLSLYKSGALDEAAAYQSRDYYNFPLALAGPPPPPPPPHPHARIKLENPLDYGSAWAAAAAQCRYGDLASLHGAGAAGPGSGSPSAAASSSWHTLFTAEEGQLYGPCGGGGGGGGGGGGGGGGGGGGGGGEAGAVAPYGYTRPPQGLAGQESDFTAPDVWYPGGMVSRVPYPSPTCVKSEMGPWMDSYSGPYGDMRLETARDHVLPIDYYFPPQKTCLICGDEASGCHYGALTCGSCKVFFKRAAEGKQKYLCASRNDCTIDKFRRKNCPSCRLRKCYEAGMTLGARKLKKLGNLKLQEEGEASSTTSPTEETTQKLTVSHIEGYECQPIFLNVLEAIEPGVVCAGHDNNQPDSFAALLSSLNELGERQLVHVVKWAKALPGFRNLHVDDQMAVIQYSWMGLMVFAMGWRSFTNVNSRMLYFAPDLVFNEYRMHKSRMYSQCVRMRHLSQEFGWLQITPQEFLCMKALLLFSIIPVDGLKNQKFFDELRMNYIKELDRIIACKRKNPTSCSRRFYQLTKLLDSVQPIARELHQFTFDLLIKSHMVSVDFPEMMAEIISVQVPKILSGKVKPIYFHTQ

CYP2D6, sequence (P10635 whole entry): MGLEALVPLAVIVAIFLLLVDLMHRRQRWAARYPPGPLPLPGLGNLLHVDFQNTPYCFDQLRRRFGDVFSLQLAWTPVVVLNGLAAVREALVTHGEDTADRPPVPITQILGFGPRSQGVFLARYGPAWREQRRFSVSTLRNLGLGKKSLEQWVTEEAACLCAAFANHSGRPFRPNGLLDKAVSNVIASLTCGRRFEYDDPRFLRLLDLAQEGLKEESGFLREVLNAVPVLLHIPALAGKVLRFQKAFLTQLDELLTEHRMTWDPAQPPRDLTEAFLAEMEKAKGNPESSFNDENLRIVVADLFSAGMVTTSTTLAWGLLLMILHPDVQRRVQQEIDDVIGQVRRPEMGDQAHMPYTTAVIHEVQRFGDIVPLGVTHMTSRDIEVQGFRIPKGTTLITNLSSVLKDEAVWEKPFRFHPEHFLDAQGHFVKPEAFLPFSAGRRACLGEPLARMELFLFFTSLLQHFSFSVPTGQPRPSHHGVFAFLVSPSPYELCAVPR
CYP3A4, sequence (P08684 whole entry, the tested form may be a part): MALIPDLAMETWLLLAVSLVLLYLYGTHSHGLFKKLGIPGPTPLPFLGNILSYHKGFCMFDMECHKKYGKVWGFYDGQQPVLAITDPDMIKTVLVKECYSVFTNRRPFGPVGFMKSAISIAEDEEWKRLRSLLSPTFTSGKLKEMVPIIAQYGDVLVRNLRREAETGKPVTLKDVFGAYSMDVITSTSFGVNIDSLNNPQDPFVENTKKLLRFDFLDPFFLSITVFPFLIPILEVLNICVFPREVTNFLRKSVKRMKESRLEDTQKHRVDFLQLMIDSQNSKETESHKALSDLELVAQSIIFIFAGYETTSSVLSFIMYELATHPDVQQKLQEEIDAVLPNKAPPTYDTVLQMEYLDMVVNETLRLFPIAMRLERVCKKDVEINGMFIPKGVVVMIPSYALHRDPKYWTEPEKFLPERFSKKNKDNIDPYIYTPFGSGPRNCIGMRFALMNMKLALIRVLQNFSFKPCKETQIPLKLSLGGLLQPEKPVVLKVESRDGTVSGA
CYP2C9, sequence (P11712 whole entry): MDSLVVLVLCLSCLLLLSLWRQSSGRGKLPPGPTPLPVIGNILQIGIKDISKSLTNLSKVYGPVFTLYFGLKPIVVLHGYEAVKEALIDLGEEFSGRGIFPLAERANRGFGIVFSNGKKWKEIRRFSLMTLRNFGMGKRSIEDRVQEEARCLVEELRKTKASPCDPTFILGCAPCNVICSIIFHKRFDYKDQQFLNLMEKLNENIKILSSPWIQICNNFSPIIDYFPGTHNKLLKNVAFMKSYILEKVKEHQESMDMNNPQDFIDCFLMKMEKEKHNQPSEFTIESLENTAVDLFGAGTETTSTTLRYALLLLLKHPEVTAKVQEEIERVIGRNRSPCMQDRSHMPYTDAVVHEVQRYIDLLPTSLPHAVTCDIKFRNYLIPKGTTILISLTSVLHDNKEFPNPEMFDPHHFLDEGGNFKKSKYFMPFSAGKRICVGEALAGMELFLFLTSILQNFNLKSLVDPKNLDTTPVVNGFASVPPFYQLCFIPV

Structure (SMILES) | IC50 [1] [µM] | microsomal CLint [2] [µL/min/mg] | logD [3] | further results
Cc1noc(C)c1S(=O)(=O)NCc1ccc(-c2cncc(C#N)c2)cc1 | 1.97 | 25 | 1.9 | –
Cc1nccn1-c1ccc(CNS(=O)(=O)c2cc(F)ccc2F)cc1 | 0.627 | 30 | 2.1 | –
Cc1cn(-c2ccc(CNS(=O)(=O)c3cc(F)ccc3F)cc2)c(C)n1 | 0.191 | 27 | 2.3 | Ki [1]: 0.113 µM; inhibition at 3 µM [4]: < 5%; IC50 [5]: 2.19 µM; IC50 [6]: > 9.21 µM; IC50 [7]: 0.556 µM; inhibition at 3 µM [8]: < 5%; inhibition at 3 µM [9]: < 5%; CLH(app) [10]: 9.6 µL/min; inhibition at 3 µM [11]: < 5%; Papp [12]: 15.4 ×10⁻⁶ cm/s; IC50 [13]: 1.31 µM; IC50 [14]: > 10 µM
Cc1nccn1-c1ccc(CNS(=O)(=O)c2ccc(F)cc2F)cc1 | 2.09 | 28 | 2 | –
Cc1nccn1-c1ccc(CNS(=O)(=O)c2ccccc2F)cc1 | 1.84 | 18 | 1.8 | –
Cc1noc(C)c1S(=O)(=O)NCc1ccc(-c2cccnc2)cc1 | 1.53 | 86 | 2.4 | –
Cc1noc(C)c1S(=O)(=O)NCc1ccc(-n2ccnc2C)cc1 | 4.7 | 17 | 1.5 | –
Cc1noc(C)c1S(=O)(=O)NCc1ccc(-c2cccc(C(N)=O)c2)cc1 | 2.03 | – | 2.4 | –

The remaining compounds from weak to strong by IC50 [1], led by results:

IC50 [1] [µM] | microsomal CLint [2] [µL/min/mg] | logD [3] | Structure (SMILES) | further results
1.39 | 39 | 2.9 | Cc1noc(C)c1S(=O)(=O)NCc1ccc(-c2cccc(NS(C)(=O)=O)c2)cc1 | –
1.21 | 53 | 2.3 | Cc1ccccc1S(=O)(=O)NCc1ccc(-n2ccnc2C)cc1 | –
0.609 | 267 | 3.9 | Cc1noc(C)c1S(=O)(=O)NCc1ccc(-c2ccccc2)s1 | –
0.356 | 203 | 4.1 | Cc1noc(C)c1S(=O)(=O)NCc1ccc(-c2ccccc2)cc1 | –
0.342 | 41 | 2 | Cc1nccn1-c1ccc(CNS(=O)(=O)c2ccccc2Cl)cc1 | –
0.168 | 49 | 2.4 | Cc1nccn1-c1ccc(CNS(=O)(=O)c2cc(F)ccc2F)cc1F | –
0.121 | > 320 | 3.2 | Cc1cc(C)c(S(=O)(=O)NCc2ccc(-n3ccnc3C)cc2)c(C)c1 | –
0.045 | 198 | 3.2 | COc1ccc(C#N)cc1-c1ccc(CNS(=O)(=O)c2c(C)noc2C)cc1 | –
0.04 | – | 3.3 | Cc1noc(C)c1S(=O)(=O)NCc1ccc(-c2cccc(C#N)c2)cc1 | –
